Results taken from PubChem BioAssay (NCI).
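Results reflect a 48-hour exposure of cells in 96-well plates to compound at five concentrations. TGI: total growth inhibition.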

Columns and labels:
Test in all cases: inhibition of tumour cell growth, NCI panel, 48 h
786-0 renal = test system: 786-0 renal
BT-549 breast = test system: BT-549 breast
HCC-2998 colon = test system: HCC-2998 colon
MALME-3M melanoma = test system: MALME-3M melanoma
MDA-MB-231 breast = test system: MDA-MB-231 breast
NCI-H23 lung = test system: NCI-H23 lung
NCI/ADR-RES ovarian = test system: NCI/ADR-RES ovarian
SK-MEL-2 melanoma = test system: SK-MEL-2 melanoma
SR leukemia = test system: SR leukemia
UACC-257 melanoma = test system: UACC-257 melanoma

Row | Compound | TGI (786-0 renal) [µM] | TGI (BT-549 breast) [µM] | TGI (HCC-2998 colon) [µM] | TGI (MALME-3M melanoma) [µM] | TGI (MDA-MB-231 breast) [µM] | TGI (NCI-H23 lung) [µM] | TGI (NCI/ADR-RES ovarian) [µM] | TGI (SK-MEL-2 melanoma) [µM] | TGI (SR leukemia) [µM] | TGI (UACC-257 melanoma) [µM]
1 | O=c1cc(N2CCOCC2)n2c(ccc3ccccc32)n1 | > 100 | > 100 | > 100 | > 100 | > 100 | > 100 | > 100 | > 100 | > 100 | > 100
2 | COc1c(C)c(C/C=C(\C)CCCC(C)CCCC(C)CCCC(C)C)c(OC)c2ccccc12 (stereo not drawn) | > 100 | > 100 | > 100 |  | > 100 | > 100 | > 100 | > 100 | > 100 | > 100
3 | COC(=O)[C@@H](NS(=O)(=O)CC12CCC(CC1)C2(C)C)C(C)(C)C | > 100 | > 100 | > 100 | > 100 | > 100 | > 100 | > 100 | > 100 | > 100 | > 100
4 | CCOC(=O)C1CCC(=O)N1C(=O)c1cccc(Cl)c1 (stereo not drawn) | > 100 | > 100 |  | > 100 | > 100 | > 100 | > 100 |  | > 100 | > 100
5 | COc1cccc(NC(=O)CC(=O)n2nc(-c3ccccc3)c(N=Nc3ccc(Cl)cc3)c2-c2ccccc2)c1 | 64.4 | 58.6 | 64.5 | 78.8 | > 100 | > 78.1 | 52.6 | 89.1 | > 73.2 | > 100
6 | CCOC(=O)c1c(N2CCCC2)[nH]c(=O)c(C(c2ccc(N(C)C)cc2)c2c(O)c(C(=O)OCC)c(N3CCCC3)[nH]c2=O)c1O | > 100 | > 100 | > 100 | > 100 | > 100 | > 100 | > 100 |  | > 100 | > 100
7 | CC(C)OP(=O)(OC(C)C)C(C(C)C)N(C)C(N)=NC#N (stereo not drawn) |  | > 100 | > 100 | > 100 | > 100 | > 100 | > 100 | > 100 | > 100 | > 100
8 | CCCC1=C(OC)C(=O)c2c(C)cc(Cl)nc2C1=O | 5.23 | 26.5 | 20.2 | 9.71 | 19.5 | 13.7 | 14.2 | 24.4 | 5.11 | 19.7
9 | c1ccc2c(Nc3ncco3)cccc2c1 | > 10 | > 10 | > 10 | > 10 | > 10 | > 10 | > 10 |  | > 10 | > 10
10 | CC(CCc1nc2ccccc2s1)(c1ccc(O)cc1)c1ccc(O)cc1 | 30.2 | 39.7 | 33.8 | 31 | 32 | 32 | 57.2 | 31.4 | 53.3 | 28.7
11 | O=c1c2ccccc2nc(N/N=C/c2ccc([N+](=O)[O-])cc2)n1-c1ccccc1 | 20.1 | 46 |  | > 100 | > 100 | > 100 | > 100 |  | > 100 | > 100
12 | [N-]=[N+]=Nc1nc2ccccc2c(N=[N+]=[N-])c1Cl | > 100 | 89.6 | > 100 | > 100 | > 100 | > 100 | > 100 | > 100 | > 100 | > 100
13 | O=c1[nH]cc(N=Cc2cc(Cl)ccc2O)c(=O)[nH]1 | 70.6 | 70 | > 100 | 73.8 | > 100 | > 100 | 53.6 | 64.5 | 24.8 | > 100
14 | Cc1cc2c(c(C(=O)NCC(=O)O)c1)Oc1c(cc(C)cc1C(=O)NCC(=O)O)S2 | > 100 | > 100 | > 100 | > 100 | > 100 | > 100 | > 100 | > 100 | > 100 | > 100
15 | O=c1cc(-c2ccccc2)oc2c1ccc1[nH]c3ccccc3c(=O)c12 | > 100 | > 100 | > 100 | > 100 | > 100 | > 100 | > 100 | > 100 | > 100 | > 100
16 | O=CC(O)C(O)C(O)C(O)COC(=O)NCCCCC(=O)C(F)(F)C(F)(F)C(F)(F)C(F)(F)C(F)(F)C(F)(F)C(F)(F)F (stereo not drawn) | > 100 | 33.9 | 60.4 | > 100 | 47.6 | > 100 | > 100 | 57.5 | > 100 | 
17 | C/C(=N\Nc1nc2ccccc2[nH]1)c1ncccn1 | > 100 | > 100 | > 100 | 8.89 | > 29.2 | 8.58 | 0.426 | 17.7 | > 100 | > 35.2
18 | Cc1cc(C)nc(NS(=O)(=O)c2ccc(NNc3c4ccccc4nc4c(C(=O)Nc5ccc(S(=O)(=O)Nc6cc(C)on6)cc5)cccc34)cc2)n1 | > 100 | > 100 | 50.2 | > 100 | 94.4 | > 100 | > 100 | 62.5 | 72.8 | > 100
19 | c1cc2cc3c4c5c(cc6ccc7cc8cc9c%10c8c8c7c6c5c8c5c%10c(c1C9N1CCOCCOCCOCCOCCOCC1)c2c45)C3 (stereo not drawn) | > 100 | > 100 | > 100 | > 100 | > 100 | > 100 | > 100 | > 100 | > 100 | > 100
20 | C/C(=C\Cc1ccc(F)cc1)CCCCCC/C(C)=C/Cc1ccc(F)cc1 | 21.9 | 79 |  |  | 37.9 | 24 | 31.9 | 37.2 | 57.2 | 33.3
21 | CC(=O)CC(=O)N1CCSC1=S | > 10 | > 10 | > 10 | > 10 | > 10 | > 10 |  | > 10 | > 10 | > 10
